# According to US9670261B2 (Sanofi, priority 2012, dated 2017):
# pEC50: −log10 of the molar value. *1 amine or outer side, *2 acyl side, *3 side chain or, on linkers, in order; H or OH if unused. Where a SMILES comes first, the peptide text is derived from it. Side-chain parts run from the residue outwards. [ ]: non-standard residue; d: D form. The star is where a group is joined. γGlu = O=C(O)[C@H](CCC(=O)[*:2])N[*:1]; Stearoyl = CCCCCCCCCCCCCCCCCC(=O)*; Palmitoyl = CCCCCCCCCCCCCCCC(=O)*; Aib = CC(C)(N)C(=O)O
# Experiments:
# female NMRI-mice [1] = experiment: Gastric emptying and intestinal passage in mice; format: in vivo; conditions: 10 μg/kg s.c., versus vehicle control
# Protocol: Female NMRI-mice of a body weight between 20 and 30 g were used. Mice were adapted to housing conditions for at least one week. Mice were overnight fasted, while water remained available all the time. On the study day, mice were weighed, single-caged and allowed access to 500 mg of feed for 30 min, while water was removed. At the end of the […], remaining feed was removed and weighed. Then, the test compound/reference compound or its vehicle in the control group was administered subcutaneously. 60 min later, to allow the compound to reach relevant plasma exposure, a coloured, non-caloric bolus was instilled via gavage into the stomach. After another 30 min, the animals were sacrificed and the stomach and the small intestine prepared. The filled stomach was weighed, emptied, carefully cleaned and dried and reweighed. The stomach content, calculated as weight of filled subtracted by the weight of emptied stomach, indicated the degree of gastric emptying. The small intestine was straightened without force and measured in length. Then the distance from the gastric beginning of the gut to the tip of the farthest traveled intestinal content bolus was measured. The intestinal passage was given as ratio in percent of the latter distance and the total length of the small intestine. […] Statistical analyses were performed with Everstat 6.0 by 1-way-ANOVA, followed by Dunnett's as post-hoc test. Dunnett's Test was applied to compare versus vehicle control. Differences were considered statistically significant at the p<0.05 level.
# female NMRI-mice [2] = experiment: Automated assessment of 22-hours feed intake in mice; format: in vivo; conditions: 0.1 mg/kg s.c.
# Protocol: Female NMRI-mice of a body weight between 20 and 30 g were used. Mice were adapted to housing conditions for at least one week and for at least one day single-caged in the assessment equipment, when basal data were recorded simultaneously. On the study day, test product was administered subcutaneously close to the lights-off phase (12 h lights off) and assessment of feed consumption was directly started afterwards. Assessment included continued monitoring over 22 hours, while data are processed as mean over every 30 min. Repetition of this procedure over several days was possible. Restriction of assessment to 22 hours was for practical reasons to allow for reweighing of animals, refilling of feed and water and drug administration between procedures. Results could be assessed as cumulated data over 22 hours or differentiated to 30 min intervals. […] Statistical analyses were performed with Everstat 6.0 by two-way ANOVA on repeated measures and Dunnett's post-hoc analyses. Differences were considered statistically significant at the p<0.05 level. […] Lights-off phase (dark phase) started 4 hours later. […].
# [3] = test system: female leptin-receptor deficient diabetic db/db mice; experiment: Blood glucose and HbA1c in leptin-receptor deficient diabetic db/db mice (method 3); format: in vivo; conditions: single 100 μg/kg s.c., fed db/db mice
# Text: Female BKS.Cg-m+/+Leprdb/J (db/db) and BKS.Cg-m+/+Leprdb/+(lean control) mice were obtained from Charles River Laboratories, Germany, at an age of 9-10 weeks. The animals were housed in groups in a specific pathogen-free barrier facility on a 12-h light/dark cycle with free access to water and rodent-standard chow. After 1 week of acclimatization, blood samples were drawn from the tail without anaesthesia and blood glucose (method: d-glucose hexokinase, hemolysate, AU640 Beckman Coulter) and HbA1c level (method: hemolysate, Cobas6000 c501, Roche Diagnostics, Germany) were determined. […] The volume of administration was 5 mL/kg. The animals had access to water and chow during the experiment, food consumption was determined at all time points of blood sampling. […] Blood sampling was performed by tail incision without anaesthesia. […] At the end of the study, blood samples (tail, no anaesthesia) were analyzed for glucose and HbA1c. […] Statistical analyses were performed with Everstat 6.0 by repeated measures two-way ANOVA and Dunnett's post-hoc analyses. Differences versus vehicle-treated db/db control mice were considered statistically significant at the p<0.05 level. […] At predefined time points, more blood samples were taken to measure blood glucose and generate the blood glucose profile over 24 h. […] Blood glucose and HbA1c were determined before start of treatment and at the end of the study after 4 weeks of treatment. […] Before treatment started, no significant differences in blood glucose levels could be detected between db/db groups, only the lean control animals had significant lower glucose levels. During the 4 weeks of treatment, glucose levels increased in the vehicle-treated db/db control group, indicating a worsening of the diabetic situation.
# [4] = Pharmacokinetic testing in mice, s.c.; conditions: mouse, sc, 1 mg/kg
# Protocol: Mice were dosed 1 mg/kg subcutaneously (s.c.). The mice were sacrified and blood samples were collected after 0.25, 0.5, 1, 2, 4, 8, 16 and 24 hours post application. Plasma samples were analyzed after protein precipitation via liquid chromatography mass spectrometry (LC/MS). PK parameters and half-life were calculated using WinonLin Version 5.2.1 (non-compartment model).
# [5] = Solubility testing in buffer (HPLC-UV)
# [6] = Chemical stability in solution, 7 days at 25° C. (% remaining peptide); conditions: % remaining peptide after 7 days at 25° C.
# Protocol: After that time course, the sample was centrifuged for 20 min at 4000 rpm and the supernatant was analysed with HPLC-UV. For determination of the amount of the remaining peptide, the peak areas of the target compound at t0 and t7 were compared, resulting in “% remaining peptide”, following the equation % remaining peptide=[(peak area peptide t7)×100]/peak area peptide t0.
# The chemical stability is expressed as “% remaining peptide”.
# human GLP-1 receptor = target: T1, human GLP-1 receptor (Homo sapiens, UniProt P43220); experiment: cAMP response (HTRF) of HEK-293 cells stably expressing human GLP-1 receptor; format: cell-based; conditions: Table 7; cAMP formation; read-out: EC50 hGLP-1 R
# T1 construct: expressed in transfected cells
# T1 sequence (P43220 24-463): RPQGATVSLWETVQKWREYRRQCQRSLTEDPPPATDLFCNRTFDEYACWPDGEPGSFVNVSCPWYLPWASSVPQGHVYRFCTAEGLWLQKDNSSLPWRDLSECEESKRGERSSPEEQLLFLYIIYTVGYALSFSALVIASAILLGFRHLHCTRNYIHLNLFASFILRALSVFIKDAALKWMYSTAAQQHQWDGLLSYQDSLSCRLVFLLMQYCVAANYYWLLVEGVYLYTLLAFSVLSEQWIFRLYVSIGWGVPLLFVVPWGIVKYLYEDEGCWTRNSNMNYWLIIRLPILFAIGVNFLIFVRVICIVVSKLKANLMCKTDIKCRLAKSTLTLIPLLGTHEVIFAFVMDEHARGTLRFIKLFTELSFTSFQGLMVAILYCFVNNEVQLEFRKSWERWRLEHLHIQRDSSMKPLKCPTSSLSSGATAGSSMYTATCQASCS
# Outline: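 HTRF read-out of cellular cAMP after 30 min compound exposure at room temperature. Accutase-detached cells were suspended at 400000 cells/ml in HBSS buffer containing 20 mM HEPES, 0.1% BSA and 2 mM IBMX phosphodiesterase inhibitor.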
# [7] = test system: female diabetic dbdb-mice; experiment: Glucose, HbA1c and oral glucose tolerance in diabetic dbdb-mice, chronic treatment (method 4); format: in vivo
# Protocol: 8 week old, female diabetic dbdb-mice of mean non-fasted glucose value of 14.5 mmol/l and a body weight of 37-40 g were used. Mice were individually marked and were adapted to housing conditions for at least one week.
# 7 days prior to study start, baseline values for non-fasted glucose and HbA1c were determined, 5 days prior to study start, mice were assigned to groups and cages (5 mice per cage, 10 per group) according to their HbA1c values to ensure even distribution of lower and higher values between groups (stratification).
# Mice were treated for 4 weeks, by once daily subcutaneous administration 3 hours prior to the dark phase (6 pm to 6 am). Blood samples from a tail tip incision were obtained for HbA1c on study day 21 and oral glucose tolerance was assessed in the 4th week. Oral glucose tolerance test was done in the morning without prior extra compound administration to majorly assess the effect of chronic treatment and less of acute compound administration. Mice were fasted for 4 hours prior to oral glucose administration (2 g/kg, t=0 min). Blood samples were drawn prior to glucose administration and at 15, 30, 60, 90, 120, and 180 min thereafter. Feed was returned after the last blood sampling. Results are represented as change from baseline, glucose in mmol/l and HbA1c in %.
# Statistical analyses are performed with Everstat Version 6.0 based on SAS by 1-way-ANOVA, followed by Dunnett's post-hoc test against vehicle-control. Differences are considered statistically significant at the p<0.05 level.
# Female dbdb-mice, received 3 and 10 μg/kg of SEQ ID NO: 16 and 10 μg/kg of SEQ ID NO: 21 or phosphate buffered saline (vehicle control) once daily, subcutaneously over four weeks.
SMILES,increase of remaining gastric contents (female NMRI-mice [1]),reduction of intestinal passage (female NMRI-mice [1]),reduction of feed intake after 22 hours (female NMRI-mice [2]),"blood glucose compared to db/db control mice, 24 h profile [3]",Cmax ([4]; in vivo),half-life ([4]; in vivo),solubility at 2 h ([5]; pH 4.5),solubility at 2 h ([5]; pH 7.4),Stability (pH 4.5) ([6]; pH 4.5),Stability (pH 7.4) ([6]; pH 7.4),pEC50 (human GLP-1 receptor),"oral glucose tolerance ([7]; once daily s.c., oral glucose 2 g/kg in the 4th week)","reduction of AUC under the glucose curve compared to vehicle control ([7]; oral glucose tolerance test, p<0.05)",Cmax ([4]; plasma),half-life ([4]; plasma)
"CCCCCCCCCCCCCCCC(=O)N[C@@H](CCC(=O)NCCCC[C@H](NC(=O)[C@H](CCC(N)=O)NC(=O)[C@@H](NC(=O)[C@H](CO)NC(=O)[C@H](CC(C)C)NC(=O)[C@H](CC(=O)O)NC(=O)[C@H](CO)NC(=O)[C@@H](NC(=O)[C@H](Cc1ccccc1)NC(=O)[C@@H](NC(=O)CNC(=O)[C@H](CCC(N)=O)NC(=O)C(C)(C)NC(=O)[C@@H](N)Cc1ccc(O)cc1)[C@@H](C)O)[C@@H](C)O)[C@@H](C)CC)C(=O)N[C@@H](CC(=O)O)C(=O)N[C@@H](CO)C(=O)N[C@@H](CCCNC(=N)N)C(=O)N[C@@H](C)C(=O)N[C@@H](C)C(=O)N[C@@H](CCC(N)=O)C(=O)N[C@@H](CC(=O)O)C(=O)N[C@@H](Cc1ccccc1)C(=O)N[C@H](C(=O)N[C@@H](CCC(=O)O)C(=O)N[C@@H](Cc1c[nH]c2ccccc12)C(=O)N[C@@H](CC(C)C)C(=O)N[C@@H](CCCCN)C(=O)N[C@@H](CC(N)=O)C(=O)NCC(=O)NCC(=O)N1CCC[C@H]1C(=O)N[C@@H](CO)C(=O)N[C@@H](CO)C(=O)NCC(=O)N[C@@H](C)C(=O)N1CCC[C@H]1C(=O)N1CCC[C@H]1C(=O)N1CCC[C@H]1C(=O)N[C@@H](CO)C(N)=O)[C@@H](C)CC)C(=O)O [SEQ ID NO: 13, Y-Aib-Q-G-T-F-T-S-D-L-S-I-Q-K(γE-x53)-DSRAAQDFIEWLKNGGPSSGAPPPS-NH2] (H-Y[Aib]QGTFTSDLSIQK([γGlu-Palmitoyl])DSRAAQDFIEWLKNGGPSSGAPPPS-NH2)",40%,60%,93%,significant decrease in blood glucose,3790 ng/mL,3.1 h,268 µg/mL,> 1000 µg/mL,86.8%,95.9%,–,–,–,–,–
"CCCCCCCCCCCCCCCCCC(=O)N[C@@H](CCC(=O)N[C@@H](CCC(=O)NCCCC[C@H](NC(=O)[C@H](CCC(N)=O)NC(=O)[C@@H](NC(=O)[C@H](CO)NC(=O)[C@H](CC(C)C)NC(=O)[C@H](CC(=O)O)NC(=O)[C@H](CO)NC(=O)[C@@H](NC(=O)[C@H](Cc1ccccc1)NC(=O)[C@@H](NC(=O)CNC(=O)[C@H](CCC(=O)O)NC(=O)C(C)(C)NC(=O)[C@@H](N)Cc1ccc(O)cc1)[C@@H](C)O)[C@@H](C)O)[C@@H](C)CC)C(=O)N[C@@H](CCC(=O)O)C(=O)N[C@@H](CCCCN)C(=O)N[C@@H](CCCNC(=N)N)C(=O)N[C@@H](C)C(=O)N[C@@H](C)C(=O)NC(C)(C)C(=O)N[C@@H](CCC(=O)O)C(=O)N[C@@H](Cc1ccccc1)C(=O)N[C@H](C(=O)N[C@@H](CCC(=O)O)C(=O)N[C@@H](Cc1c[nH]c2ccccc12)C(=O)N[C@@H](CC(C)C)C(=O)N[C@@H](CCCCN)C(=O)N[C@@H](CC(N)=O)C(=O)N[C@H](C(=O)NCC(=O)N1CCC[C@H]1C(=O)N[C@@H](CO)C(=O)N[C@@H](CO)C(=O)NCC(=O)N[C@@H](C)C(=O)N1CCC[C@H]1C(=O)N1CCC[C@H]1C(=O)N1CCC[C@H]1C(=O)N[C@@H](CO)C(N)=O)[C@@H](C)O)[C@@H](C)CC)C(=O)O)C(=O)O [SEQ ID NO: 16, Y-Aib-E-G-T-F-T-S-D-L-S-I-Q-K(γE-γE-x70)-E-K-R-A-A-Aib-E-F-I-E-W-L-K-N-T-G-P-S-S-G-A-P-P-P-S-NH2] (H-Y[Aib]EGTFTSDLSIQK([γGlu-γGlu-Stearoyl])EKRAA[Aib]EFIEWLKNTGPSSGAPPPS-NH2)",–,–,–,–,–,–,–,–,–,–,11.40,improved oral glucose tolerance,reached statistical significance,3460 ng/mL,5.3 h
